#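 Growth conditions: 96-well plates. Treatment: test compound, 48 hours, 5 concentrations. Analysis: linear interpolation between bracketing concentrations; unreached endpoints set to highest concentration. TGI is the concentration that stops growth completely.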
# Experiments:
# Assay in all cases: inhibition of tumour cell growth, NCI panel, 48 h
# A498 renal = system: A498 renal
# U251 CNS = system: U251 CNS
# TK-10 renal = system: TK-10 renal
# UO-31 renal = system: UO-31 renal
# NCI/ADR-RES ovarian = system: NCI/ADR-RES ovarian
# LOX IMVI melanoma = system: LOX IMVI melanoma
# SF-295 CNS = system: SF-295 CNS
# HCT-116 colon = system: HCT-116 colon
# OVCAR-3 ovarian = system: OVCAR-3 ovarian
# SF-539 CNS = system: SF-539 CNS
# UACC-257 melanoma = system: UACC-257 melanoma
# A549 NSCLC = system: A549 NSCLC
# CCRF-CEM leukemia = system: CCRF-CEM leukemia
# SK-OV-3 ovarian = system: SK-OV-3 ovarian
# SN12C renal = system: SN12C renal
# NCI-H522 lung = system: NCI-H522 lung
# NCI-H23 lung = system: NCI-H23 lung
# PC-3 prostate = system: PC-3 prostate
# MDA-MB-231 breast = system: MDA-MB-231 breast
SMILES,TGI (A498 renal),TGI (U251 CNS),TGI (TK-10 renal),TGI (UO-31 renal),TGI (NCI/ADR-RES ovarian),TGI (LOX IMVI melanoma),TGI (SF-295 CNS),TGI (HCT-116 colon),TGI (OVCAR-3 ovarian),TGI (SF-539 CNS),TGI (UACC-257 melanoma),TGI (A549 NSCLC),TGI (CCRF-CEM leukemia),TGI (SK-OV-3 ovarian),TGI (SN12C renal),TGI (NCI-H522 lung),TGI (NCI-H23 lung),TGI (PC-3 prostate),TGI (MDA-MB-231 breast)
O=c1c2ccccc2ncn1COCc1ccccc1,> 100 µM,> 100 µM,> 100 µM,> 100 µM,> 100 µM,> 100 µM,> 100 µM,> 100 µM,> 100 µM,> 100 µM,> 100 µM,> 100 µM,> 100 µM,> 100 µM,–,–,–,–,–
O=C([O-])c1ccccc1Nc1ccccc1C(=O)[O-].[OH3+].[Zn+2],44.7 µM,33 µM,> 100 µM,> 63.1 µM,–,44.9 µM,32.2 µM,> 78.2 µM,32.9 µM,> 82.9 µM,21.5 µM,> 100 µM,61.6 µM,39 µM,> 100 µM,18.2 µM,28.9 µM,–,–
Cc1cc2c3c(nc2c2cc[nH]c(C)c12)CCCC3,–,3.83 µM,4.64 µM,6.91 µM,19.5 µM,4.69 µM,3.93 µM,3.35 µM,5.07 µM,3.72 µM,3.66 µM,4.53 µM,6.48 µM,3.7 µM,3.39 µM,–,10.4 µM,16.6 µM,3.17 µM
CC(C)(Oc1ccc2c(=O)cc(-c3ccc(Cl)cc3)oc2c1)C(=O)Nc1c(Cl)cccc1Cl,> 100 µM,> 100 µM,> 100 µM,> 100 µM,–,> 100 µM,> 100 µM,> 100 µM,> 100 µM,> 100 µM,> 100 µM,> 100 µM,> 100 µM,> 100 µM,–,> 100 µM,> 100 µM,–,–
CC1=C(C(=O)O)N2C(=O)[C@@H](NC(=O)C(c3ccccc3)N3CSC(=S)N(C(C)C)C3)C2SC1 (some centres undefined),> 100 µM,> 100 µM,> 100 µM,> 100 µM,–,> 100 µM,> 100 µM,> 100 µM,> 100 µM,> 100 µM,> 100 µM,–,> 100 µM,> 100 µM,> 100 µM,66.6 µM,> 100 µM,–,–
CCOC(=O)c1ccc(NCc2ccc3nc(OC)c(OC)nc3c2)cc1,> 100 µM,> 100 µM,–,> 100 µM,> 100 µM,> 100 µM,> 100 µM,> 100 µM,> 100 µM,> 100 µM,> 100 µM,> 100 µM,> 100 µM,> 100 µM,> 100 µM,> 100 µM,> 100 µM,> 100 µM,> 100 µM
CC1=C/C(=N\NS(=O)(=O)c2ccc([N+](=O)[O-])cc2)CC(C)(C)C1,> 100 µM,> 100 µM,> 100 µM,> 100 µM,> 100 µM,> 100 µM,> 100 µM,> 100 µM,> 100 µM,> 100 µM,> 100 µM,> 100 µM,> 100 µM,> 100 µM,> 100 µM,> 100 µM,> 100 µM,> 100 µM,> 100 µM

# Reference: PubChem BioAssay (NCI)
